Here are results for 32 molecules from patent US9586951B2 (FUJIFILM Corporation, priority 2013, dated 2017).

pIC50: −log10 of the molar value.

T1 sequence (Q13315 whole entry): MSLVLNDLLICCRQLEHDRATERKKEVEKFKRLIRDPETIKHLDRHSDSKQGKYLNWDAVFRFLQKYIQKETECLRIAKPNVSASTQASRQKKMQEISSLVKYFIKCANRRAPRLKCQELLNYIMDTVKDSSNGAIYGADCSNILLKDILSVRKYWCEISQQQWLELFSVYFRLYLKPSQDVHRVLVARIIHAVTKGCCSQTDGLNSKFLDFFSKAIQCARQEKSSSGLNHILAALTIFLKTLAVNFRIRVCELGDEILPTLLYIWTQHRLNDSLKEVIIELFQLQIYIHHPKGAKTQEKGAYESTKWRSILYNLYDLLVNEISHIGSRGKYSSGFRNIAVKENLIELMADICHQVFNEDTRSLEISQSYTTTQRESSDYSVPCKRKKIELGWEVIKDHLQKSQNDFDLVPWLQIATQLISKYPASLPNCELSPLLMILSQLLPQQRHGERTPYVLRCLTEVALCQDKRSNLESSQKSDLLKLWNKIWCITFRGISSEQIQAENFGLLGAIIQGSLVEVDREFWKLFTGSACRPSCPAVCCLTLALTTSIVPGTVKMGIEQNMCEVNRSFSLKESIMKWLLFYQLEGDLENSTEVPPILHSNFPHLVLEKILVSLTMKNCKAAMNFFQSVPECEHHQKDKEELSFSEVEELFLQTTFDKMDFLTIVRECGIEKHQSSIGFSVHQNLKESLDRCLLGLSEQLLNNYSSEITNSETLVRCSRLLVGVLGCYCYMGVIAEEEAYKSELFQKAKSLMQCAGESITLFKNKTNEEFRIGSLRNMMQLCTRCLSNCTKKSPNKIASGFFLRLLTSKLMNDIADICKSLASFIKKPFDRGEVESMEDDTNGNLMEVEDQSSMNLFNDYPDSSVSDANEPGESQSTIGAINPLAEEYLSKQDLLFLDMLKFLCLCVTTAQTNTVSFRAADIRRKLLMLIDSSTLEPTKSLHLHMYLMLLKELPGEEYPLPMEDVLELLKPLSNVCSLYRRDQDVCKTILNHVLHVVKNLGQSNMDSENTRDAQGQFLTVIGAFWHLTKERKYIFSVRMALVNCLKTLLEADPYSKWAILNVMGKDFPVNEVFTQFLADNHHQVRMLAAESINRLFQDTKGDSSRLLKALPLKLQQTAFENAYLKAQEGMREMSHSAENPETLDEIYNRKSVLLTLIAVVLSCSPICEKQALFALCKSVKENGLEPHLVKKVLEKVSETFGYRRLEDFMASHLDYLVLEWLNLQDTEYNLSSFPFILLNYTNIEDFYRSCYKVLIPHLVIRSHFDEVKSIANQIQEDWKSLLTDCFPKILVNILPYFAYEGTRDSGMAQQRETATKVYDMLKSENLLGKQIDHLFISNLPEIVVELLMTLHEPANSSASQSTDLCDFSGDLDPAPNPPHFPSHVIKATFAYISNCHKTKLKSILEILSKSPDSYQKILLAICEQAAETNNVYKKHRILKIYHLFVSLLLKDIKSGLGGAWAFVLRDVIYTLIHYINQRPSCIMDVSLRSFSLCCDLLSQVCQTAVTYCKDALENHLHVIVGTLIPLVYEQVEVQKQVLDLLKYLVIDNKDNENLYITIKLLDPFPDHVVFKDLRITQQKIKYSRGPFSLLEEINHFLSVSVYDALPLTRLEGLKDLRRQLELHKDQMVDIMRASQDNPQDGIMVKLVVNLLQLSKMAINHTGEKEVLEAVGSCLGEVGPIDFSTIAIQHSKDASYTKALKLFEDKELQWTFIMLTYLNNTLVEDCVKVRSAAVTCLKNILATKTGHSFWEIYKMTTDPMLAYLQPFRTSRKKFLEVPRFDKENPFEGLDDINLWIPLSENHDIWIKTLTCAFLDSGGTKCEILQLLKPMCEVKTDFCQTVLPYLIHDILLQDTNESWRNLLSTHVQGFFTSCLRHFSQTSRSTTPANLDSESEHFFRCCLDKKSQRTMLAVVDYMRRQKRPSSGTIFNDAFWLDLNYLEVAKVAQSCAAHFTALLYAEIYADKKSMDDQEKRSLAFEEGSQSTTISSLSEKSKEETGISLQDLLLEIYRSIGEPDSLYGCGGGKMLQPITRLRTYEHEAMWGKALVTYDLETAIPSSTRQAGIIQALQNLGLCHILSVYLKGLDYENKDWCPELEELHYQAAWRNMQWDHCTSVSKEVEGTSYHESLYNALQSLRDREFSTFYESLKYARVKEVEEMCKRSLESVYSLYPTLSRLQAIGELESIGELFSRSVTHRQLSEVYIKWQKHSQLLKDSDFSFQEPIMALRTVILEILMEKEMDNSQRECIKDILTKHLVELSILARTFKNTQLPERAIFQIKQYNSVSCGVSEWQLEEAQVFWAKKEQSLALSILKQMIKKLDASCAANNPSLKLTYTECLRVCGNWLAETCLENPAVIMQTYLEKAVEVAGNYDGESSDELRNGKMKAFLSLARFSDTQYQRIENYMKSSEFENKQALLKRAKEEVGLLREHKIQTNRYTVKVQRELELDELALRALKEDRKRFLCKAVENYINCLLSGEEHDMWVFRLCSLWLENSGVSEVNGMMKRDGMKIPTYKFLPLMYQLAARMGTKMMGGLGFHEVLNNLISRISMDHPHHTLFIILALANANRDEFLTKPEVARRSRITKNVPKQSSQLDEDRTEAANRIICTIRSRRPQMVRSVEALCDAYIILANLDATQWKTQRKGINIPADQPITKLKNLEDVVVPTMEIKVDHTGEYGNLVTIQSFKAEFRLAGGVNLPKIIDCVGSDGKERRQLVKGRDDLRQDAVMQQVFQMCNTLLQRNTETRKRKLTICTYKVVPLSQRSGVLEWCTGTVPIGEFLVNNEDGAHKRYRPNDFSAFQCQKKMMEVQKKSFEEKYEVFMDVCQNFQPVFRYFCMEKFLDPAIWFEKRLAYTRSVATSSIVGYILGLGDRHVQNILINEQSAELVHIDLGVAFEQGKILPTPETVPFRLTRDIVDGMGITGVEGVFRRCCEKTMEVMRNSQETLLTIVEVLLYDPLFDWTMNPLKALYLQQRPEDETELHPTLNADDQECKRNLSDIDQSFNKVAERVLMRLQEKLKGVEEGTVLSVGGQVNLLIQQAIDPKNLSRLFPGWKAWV

The first experiment concerns the target T1, ATM (Homo sapiens, UniProt Q13315).
T1 construct: detecting phosphorylation of Chk2 in a human non-small cell lung cancer cell line NCI-H460 (ATCC company); host or cells: NCI-H460 human non-small cell lung cancer cells
Briefly: ATM inhibition test (phosphorylation of Chk2 generated by ionizing radiation, AlphaScreen SureFire). As to conditions: ATM inhibitory activity, phosphorylated Chk2 in NCI-H460 cells, ionizing radiation 8Gy, 1 hour after test compound treatment. It counts as cell-based. The method, boiled down: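 NCI-H460 cells treated with compound for 1 hour, then irradiated with 8Gy and incubated 1 hour at 37° C. Phospho-Chk2 measured by AlphaScreen SureFire. Inhibition ratio calculated relative to untreated irradiated and non-irradiated wells.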
With `O=c1cc(N2CCOCC2)cc(-c2cccc3c2Sc2ccc(NCc4cccc(N5CCOCC5)n4)cc2S3)[nH]1` [Example 1-12-32, 4-Morpholino-6-(7-(((6-morpholinopyridin-2-yl)methyl)amino)thianthren-1 yl)pyridin-2(1H)-one], the pIC50 was 6.30 to 7.00.

The same experiment, now with this note: phosphorylated Chk2 in NCI-H460 cells, ionizing radiation 8Gy, 1 hour after test compound treatment; read-out: ATM inhibitory activity.
Regarding `O=c1cc(N2CCOCC2)cc(-c2cccc3c2Sc2ccc(NC4CCCCC4N4CCOCC4)cc2S3)[nH]1` (centres unmarked) [Example 1-16-2, 4-Morpholino-6-(7-((2-morpholinocyclohexyl)amino)thianthren-1-yl)pyridin-2(1H)-one], the pIC50 was 6.30 to 7.00.
With `O=c1cc(N2CCOCC2)cc(-c2cccc3c2Oc2ccc(NCc4ccccn4)cc2S3)[nH]1` [Example 4-4-24, 4-Morpholino-6-(8-((pyridin-2-ylmethyl)amino)phenoxathiin-4-yl) pyridin-2(1H)-one], the pIC50 was 6.30 to 7.00.
Turning to `CC(Nc1ccc2c(c1)Sc1cccc(-c3cc(N4CCOCC4)cc(=O)[nH]3)c1S2)c1cccc(CN2CCCC2)n1` (centres unmarked) [Example 1-12-110, 4-Morpholino-6-(7-((1-(6-(pyrrolidin-1-ylmethyl)pyridin-2-yl)ethyl)amino)thianthren-1-yl)pyridin-2 (1H)-one], the pIC50 is 5.70 to 6.30.
As for `N#Cc1ccc(CNc2ccc3c(c2)Cc2cccc(-c4cc(N5CCOCC5)cc(=O)[nH]4)c2O3)s1` [Example 2-14-32, 6-(7-(((5-Isocycanothiophen-2-yl)methyl)amino)-9H-xanthen-4-yl)-4-morpholino pyridin-2(1H)-one], the pIC50 is over 7.00.
On to `CC(CN1CCC1)Nc1ccc2c(c1)Sc1cccc(-c3cc(N4CCOCC4)cc(=O)[nH]3)c1S2` (centres unmarked) [Example 1-43-1, 6-(7-((1-(azetidin-1-yl)propan-2-yl)amino)thianthren-1-yl)-4-morpholinopyridin-2(1H)-one], for which the pIC50 was 6.30 to 7.00.
Still for that read-out and setting: as for `CC(C)(C)OC(=O)N1CCC(Nc2ccc3c(c2)Sc2cccc(-c4cc(N5CCOCC5)cc(=O)[nH]4)c2O3)CC1` [Example 4-8-3, tent-Butyl 4-((6-(4-morpholino-6-oxo-1,6-dihydropyridin-2-yl)phenoxathiin-2-yl)amino) piperidin-l-carboxylate], the figure is 6.30 to 7.00; as for `CN(C)CC(=O)Nc1ccc2c(c1)Sc1cccc(-c3cc(N4CCOCC4)cc(=O)[nH]3)c1S2` [Example 1-7-1, 2-(dimethylamino)-N-(6-(4-morpholino-6-oxo-1,6-dihydropyridin-2-yl)thianthren-2-yl)acetamide], 5.70 to 6.30.
Turning to `COc1ccc(CNc2ccc3c(c2)Cc2cccc(-c4cc(N5CCOCC5)cc(=O)[nH]4)c2O3)cc1` [Example 2-40, 6-(7-((4-methoxybenzyl)amino)-9H-xanthen-4-yl)-4-morpholinopyridin-2(1H)-one], the pIC50 was 6.30 to 7.00.
Consider `CC(CN1CCN(Cc2ccccn2)CC1)Nc1ccc2c(c1)Sc1cccc(-c3cc(N4CCOCC4)cc(=O)[nH]3)c1S2` (centres unmarked) [Example 1-15-2, 4-Morpholino-6-(7-((1-(4-(pyridin-2-ylmethyl)piperazin-1-yl)propan-2-yl)amino)thianthren-1-yl)pyridin-2(1H)-one], for which the pIC50 is 6.30 to 7.00.
Take `O=c1cc(N2CCOCC2)cc(-c2cccc3c2Oc2ccc(NC4CCN(CCc5ccc(F)cc5)CC4)cc2C3)[nH]1` [Example 2-30-14, 6-(7-((1-(4-Fluorophenethyl)piperidin-4-yl)amino)-9H-xanthen-4-yl)-4-morpholino pyridin-2(1H)-one]: the pIC50 was 6.30 to 7.00.
As for `CNc1ncccc1CNc1ccc2c(c1)Sc1cccc(-c3cc(N4CCOCC4)cc(=O)[nH]3)c1O2` [Example 4-8-21, 6-(8-(((2-(Methylamino)pyridin-3-yl)methyl)amino)phenoxathiin-4-yl)-4-morpholino pyridin-2(1H)-one], the pIC50 is 6.30 to 7.00.
Consider `Cc1ccc(C(Nc2ccc3c(c2)Sc2cccc(-c4cc(N5CCOCC5)cc(=O)[nH]4)c2S3)[C@@H]2CN(C)CCO2)nc1` (single isomer, unassigned) [Example 1-56-10], for which the pIC50 is over 7.00.
Turning to `O=c1cc(N2CCOCC2)cc(-c2cccc3c2Oc2ccc(NC4CCN(CCc5ccccc5)C4)cc2S3)[nH]1` (centres unmarked) [Example 4-6-1, 4-Morpholino-6-(8-((1-phenethylpyrrolidin-3-yl)amino)phenoxathiin-4-yl)pyridin-2(1H)-one], the pIC50 is 6.30 to 7.00.
With `CC[C@H](N)C(CC(C)C)Nc1ccc2c(c1)Sc1cccc(-c3cc(N4CCOCC4)cc(=O)[nH]3)c1S2` (some centres unmarked) [Example 1-20-7], the pIC50 is 5.70 to 6.30.
Still for that read-out and setting: as for `CC(CN1CCN(C)CC1)Nc1ccc2c(c1)Sc1cccc(-c3cc(=O)cc(N4CCOCC4)o3)c1S2` (centres unmarked) [Example 11-4, 2-(7-((1-(4-Methylpiperazin-1-yl)propan-2-yl)amino)thianthren-1-yl)-6-morpholino-4H-pyran-4-one], the figure is 6.30 to 7.00; as for `COC[C@H](CN1CCOCC1)Nc1ccc2c(c1)Cc1cccc(-c3cc(N4CCOCC4)cc(=O)[nH]3)c1O2` [Example 12-5, (S)-6-(7-((1-methoxy-3-morpholinopropan-2-yl)amino)-9H-xanthen-4-yl)-4-morpholinopyridin-2(1H)-one], 6.30 to 7.00; as for `COc1ncc(CNc2ccc3c(c2)Sc2cccc(-c4cc(N5CCOCC5)cc(=O)[nH]4)c2S3)cn1` [Example 1-12-10, 6-(7-(((2-Methoxypyrimidin-5-yl)methyl)amino)thianthren-1-yl)-4-morpholino pyridin-2(1H)-one], 6.30 to 7.00.
Same read-out and setting: as for `COC[C@H](CN(C(C)C)C(C)C)Nc1ccc2c(c1)Sc1cccc(-c3cc(N4CCOCC4)cc(=O)[nH]3)c1S2` [Example 1-46-14, (S)-6-(7-((1-(Diisopropylamino)-3-methoxypropan-2-yl)amino)thianthren-1-yl)-4-morpholino pyridin-2(1H)-one], the figure is 6.30 to 7.00; as for `O=C(CN1CCOCC1)Nc1ccc2c(c1)Sc1cccc(-c3cc(N4CCOCC4)cc(=O)[nH]3)c1S2` [Example 1-7-4, 2-Morpholino-N-(6-(4-morpholino-6-oxo-1,6-dihydropyridin-2-yl)thianthren-2-yl)acetamide], 6.30 to 7.00.
On to `CN1CC(CNc2ccc3c(c2)Sc2cccc(-c4cc(N5CCOCC5)cc(=O)[nH]4)c2S3)C1` [Example 1-2-1, 6-(7-(((1-methylazetidin-3-yl)methyl)amino)thianthren-1-yl)-4-morpholinopyridin-2(1H)-one], for which the pIC50 was 6.30 to 7.00.
As to `CCOCC(Nc1ccc2c(c1)Sc1cccc(-c3cc(N4CCOCC4)cc(=O)[nH]3)c1S2)c1ccc(C)cn1` (centres unmarked) [Example 1-12-101, 6-(7-((2-Ethoxy-1-(5-methylpyridin-2-yl)ethyl)amino)thianthren-1-yl)-4-morpholino pyridin-2(1H)-one], the pIC50 was 6.30 to 7.00.
Consider `O=c1cc(N2CCOCC2)cc(-c2cccc3c2Oc2ccc(NC4CCN(CC(O)c5ccccc5)CC4)cc2C3)[nH]1` (centres unmarked) [Example 2-30-13, 6-(7-((1-(2-Hydroxy-2-phenylethyl)piperidin-4-yl)amino)-9H-xanthen-4-yl)-4-morpholino pyridin-2(1H)-one], for which the pIC50 is 6.30 to 7.00.
On the same count and under the same terms, as for `CC(C)(O)CN1CCC(Nc2ccc3c(c2)Sc2cccc(-c4cc(N5CCOCC5)cc(=O)[nH]4)c2S3)CC1` [Example 1-29-1, 6-(7-((1-(2-hydroxy-2-methylpropyl)piperidin-4-yl)amino)thianthren-1-yl)-4-morpholinopyridin-2(1H)-one], the figure is 6.30 to 7.00; as for `Cc1ccc(C(Nc2ccc3c(c2)Sc2cccc(-c4cc(N5CCOCC5)cc(=O)[nH]4)c2S3)C2CN(C)C2)nc1` (centres unmarked) [Example 1-22-8, 6-(7-(((1-Methylazetidin-3-yl)(5-methylpyridin-2-yl)methyl)amino)thianthren-1-yl)-4-morpholino pyridin-2 (1H)-one], 6.30 to 7.00.
As to `O=c1cc(N2CCOCC2)cc(-c2cc(F)cc3c2Oc2ccc(NCc4cncc(Cl)c4)cc2C3)[nH]1` [Example 2-48-3, 6-(7-(((5-Chloropyridin-3-yl)methyl)amino)-2-fluoro-9H-xanthen-4-yl)-4-morpholinopyridin-2(1H)-one], the pIC50 is 6.30 to 7.00.
As for `O=c1cc(N2CCOCC2)cc(-c2cccc3c2Oc2ccc(NC4CCN(CC(F)(F)F)CC4)cc2C3)[nH]1` [Example 2-34, 4-Morpholino-6-(7-((1-(2,2,2-trifluoroethyl)piperidin-4-yl)amino)-9H-xanthen-4-yl)pyridin-2(1H)-one], the pIC50 was 6.30 to 7.00.
As to `CC(Nc1ccc2c(c1)Sc1cccc(-c3cc(N4CCOCC4)cc(=O)[nH]3)c1S2)c1nccc(CO)n1` (centres unmarked) [Example 1-12-86, 6-(7-((1-(4-(Hydroxymethyl)pyrimidin-2-yl)ethyl)amino)thianthren-1-yl)-4-morpholino pyridin-2(1H)-one], the pIC50 is 6.30 to 7.00.
Regarding `CC(Nc1ccc2c(c1)Cc1cccc(-c3cc(N4CCOCC4)cc(=O)[nH]3)c1O2)c1cccs1` (centres unmarked) [Example 2-14-44, 4-Morpholino-6-(7-((1-(thiophen-2-yl)ethyl)amino)-9H-xanthen-4-yl) pyridin-2(1H)-one], the pIC50 was 6.30 to 7.00.
In the case of `COc1cncc(CNc2ccc3c(c2)Cc2ccnc(-c4cc(N5CCOCC5)cc(=O)[nH]4)c2O3)c1` [Example 2-41-1, 6-(7-(((5-Methoxypyridin-3-yl)methyl)amino)-5H-chromeno[2,3-c]pyridin-1-yl)-4-morpholinopyridin-2(1H)-one], the pIC50 was 6.30 to 7.00.
With `O=c1cc(N2CCOCC2)cc(-c2cccc3c2Sc2ccc(NCCN4CCS(=O)(=O)CC4)cc2S3)[nH]1` [Example 1-16-8, 6-(7-((2-(1,1-Dioxidethiomorpholino)ethyl)amino)thianthren-1-yl)-4-morpholinopyridin-2(1H)-one], the pIC50 was 6.30 to 7.00.
For `COc1ncccc1CNc1ccc2c(c1)Sc1cccc(-c3cc(N4CCOCC4)cc(=O)[nH]3)c1O2` [Example 4-8-9, 6-(8-(((2-Methoxypyridin-3-yl)methyl)amino)phenoxathiin-4-yl)-4-morpholino pyridin-2 (1H)-one], the pIC50 is 6.30 to 7.00.
